Test results from patent US20090232913A1, “Composition for the Control of Cholesterol Levels” (priority 2005, published 2009).
“Also recorded” adds a separate entry of the source.

What was measured:
diabetic rats [1] = experiment: Serum cholesterol concentrations after 7 day oral treatment of diabetic rats (lovastatin, MKH, combination); format: in vivo; conditions: for Effect on total cholesterol: 7 day oral dosage; for Effect on HDL levels: 7 days, MKH at 2 mg/kg
Description: This is significant as HDLs are protective against heart disease (Despres et al., 2000, Atherosclerosis 153: 263-272). […] This is important as low LDL levels are associated with decreased risk of heart disease.

diabetic Wistar rats = experiment: Blood glucose and OGTT in alloxan-induced diabetic rats; format: in vivo; conditions: 5 days oral treatment
Experimental: In this study white, adult male Wistar rats with average weights between 200 to 300 grams were used. During the study, the animals had free access to food and water and were exposed to changes of dark and light every 12 hours. Access to the food was restricted 12 hours before measurement of glucose blood level with free access to water. The experiment was performed on a normoglycaemic group (Group 1, 32 rats, 8 per treatment) and diabetic rats (Group 2, 32 rats, 8 per treatment). For the diabetic rat experiments diabetes was induced with intraperitoneal injection of alloxan 100 mg/kg. Alloxan is very well verified diabetogenic substance for inducing diabetes in rats and other animal species (rabbit, dog, mice et […]). See, for example, […]. Coil Physicians Edinb, 32: 134-142, 2002; […], Diabetologia, 31: 337-342, 1988; Shaw et al., Lancet, 11: 384-386, 1943; Goldner & Gomori, Endocrinology, 35: 241-268, 1943. 1). Saline solution, 1 ml/kg, per orally, daily for 5 days (control group); 2). Stevioside, 20 mg/kg, orally, daily for 5 days; 3). […] In the diabetic rat the criterion for successful diabetes induction was blood glucose greater than 20 mmol/L on the third day after the last alloxan dose after 3 hours of fasting with free access to water. […] Glucose blood concentrations were measured before the treatment, after the 5th dose, before OGTT, and 30 minutes after OGTT. […]

normoglycaemic rats [2] = experiment: C peptide serum concentration in normoglycaemic rats; format: in vivo, Wistar rats; conditions: non-diabetic rats; treatment for 5 days
Experimental: In this study white, adult male Wistar rats with average weights between 200 to 300 grams were used. During the study, the animals had free access to food and water and were exposed to changes of dark and light every 12 hours. Access to the food was restricted 12 hours before measurement of glucose blood level with free access to water. The experiment was performed on a normoglycaemic group (Group 1, 32 rats, 8 per treatment) and diabetic rats (Group 2, 32 rats, 8 per treatment). For the diabetic rat experiments diabetes was induced with intraperitoneal injection of alloxan 100 mg/kg. Alloxan is very well verified diabetogenic substance for inducing diabetes in rats and other animal species (rabbit, dog, mice et […]). See, for example, […]. Coil Physicians Edinb, 32: 134-142, 2002; […], Diabetologia, 31: 337-342, 1988; Shaw et al., Lancet, 11: 384-386, 1943; Goldner & Gomori, Endocrinology, 35: 241-268, 1943. 1). Saline solution, 1 ml/kg, per orally, daily for 5 days (control group); 2). Stevioside, 20 mg/kg, orally, daily for 5 days; 3). […] 15 minutes after the 5th dose, the animals were exposed to an oral glucose tolerance test (OGTT) using 4 g/kg, orally. Glucose blood concentrations were measured before the treatment, after the 5th dose, before OGTT, and 30 minutes after OGTT. […] The following were measured in serum: 1). […]

normoglycaemic rats [3] = experiment: Serum cholesterol and lipid profile in normoglycaemic rats after 5 days treatment; format: in vivo, Wistar rats; conditions: for Changes in HDL serum cholesterol concentrations / Changes in total cholesterol in serum concentrations / LDL serum cholesterol concentrations relative to control values: normoglycaemic / non-diabetic rats, 5 days treatment
Experimental: In this study white, adult male Wistar rats with average weights between 200 to 300 grams were used. During the study, the animals had free access to food and water and were exposed to changes of dark and light every 12 hours. Access to the food was restricted 12 hours before measurement of glucose blood level with free access to water. The experiment was performed on a normoglycaemic group (Group 1, 32 rats, 8 per treatment) and diabetic rats (Group 2, 32 rats, 8 per treatment). For the diabetic rat experiments diabetes was induced with intraperitoneal injection of alloxan 100 mg/kg. Alloxan is very well verified diabetogenic substance for inducing diabetes in rats and other animal species (rabbit, dog, mice et […]). See, for example, […]. Coil Physicians Edinb, 32: 134-142, 2002; […], Diabetologia, 31: 337-342, 1988; Shaw et al., Lancet, 11: 384-386, 1943; Goldner & Gomori, Endocrinology, 35: 241-268, 1943. 1). Saline solution, 1 ml/kg, per orally, daily for 5 days (control group); 2). Stevioside, 20 mg/kg, orally, daily for 5 days; 3). […] 15 minutes after the 5th dose, the animals were exposed to an oral glucose tolerance test (OGTT) using 4 g/kg, orally. Glucose blood concentrations were measured before the treatment, after the 5th dose, before OGTT, and 30 minutes after OGTT. Then the animals were anaesthetised with urethane injected intraperitoneally, 750 mg/kg, and blood samples for further biochemical analyses were taken by cardiopunction. All biochemical analyses of serum were done by standard procedures, as recommended by the International Federation for Clinical Chemistry (IFCC), on automatic spectrophotometer LISA 300 plus with International Quality Control. The following were measured in serum: 1). Triglycerides concentration (GPO-PAP kit obtained from Boehringer Mannheim GmbH (Mannheim, Germany) in accordance with the manufacturers instructions) 2). […] C-peptide concentration. […] Generally the desired outcome was a decrease in low density lipoprotein (LDL), with no concomitant decrease in high density lipoprotein (HDL). It was also hypothesised that there would be a compatibility with glycaemic effects shown in Example 2. The experimental procedures were essentially those described in Example 2.

diabetic rats [4] = experiment: Serum cholesterol and lipid profile in diabetic rats after 5 days treatment; format: in vivo, Wistar rats; conditions: for Effect on LDL cholesterol levels: treatment for 5 days
Experimental: In this study white, adult male Wistar rats with average weights between 200 to 300 grams were used. During the study, the animals had free access to food and water and were exposed to changes of dark and light every 12 hours. Access to the food was restricted 12 hours before measurement of glucose blood level with free access to water. The experiment was performed on a normoglycaemic group (Group 1, 32 rats, 8 per treatment) and diabetic rats (Group 2, 32 rats, 8 per treatment). For the diabetic rat experiments diabetes was induced with intraperitoneal injection of alloxan 100 mg/kg. Alloxan is very well verified diabetogenic substance for inducing diabetes in rats and other animal species (rabbit, dog, mice et […]). See, for example, […]. Coil Physicians Edinb, 32: 134-142, 2002; […], Diabetologia, 31: 337-342, 1988; Shaw et al., Lancet, 11: 384-386, 1943; Goldner & Gomori, Endocrinology, 35: 241-268, 1943. 1). Saline solution, 1 ml/kg, per orally, daily for 5 days (control group); 2). Stevioside, 20 mg/kg, orally, daily for 5 days; 3). […] In the diabetic rat the criterion for successful diabetes induction was blood glucose greater than 20 mmol/L on the third day after the last alloxan dose after 3 hours of fasting with free access to water. 15 minutes after the 5th dose, the animals were exposed to an oral glucose tolerance test (OGTT) using 4 g/kg, orally. Glucose blood concentrations were measured before the treatment, after the 5th dose, before OGTT, and 30 minutes after OGTT. Then the animals were anaesthetised with urethane injected intraperitoneally, 750 mg/kg, and blood samples for further biochemical analyses were taken by cardiopunction. All biochemical analyses of serum were done by standard procedures, as recommended by the International Federation for Clinical Chemistry (IFCC), on automatic spectrophotometer LISA 300 plus with International Quality Control. The following were measured in serum: 1). Triglycerides concentration (GPO-PAP kit obtained from Boehringer Mannheim GmbH (Mannheim, Germany) in accordance with the manufacturers instructions) 2). […] C-peptide concentration. […] Generally the desired outcome was a decrease in low density lipoprotein (LDL), with no concomitant decrease in high density lipoprotein (HDL). It was also hypothesised that there would be a compatibility with glycaemic effects shown in Example 2. The experimental procedures were essentially those described in Example 2.

diabetic rats [5] = experiment: C peptide serum concentration in diabetic rats; format: in vivo, Wistar rats; conditions: treatment for 5 days
Experimental: In this study white, adult male Wistar rats with average weights between 200 to 300 grams were used. During the study, the animals had free access to food and water and were exposed to changes of dark and light every 12 hours. Access to the food was restricted 12 hours before measurement of glucose blood level with free access to water. The experiment was performed on a normoglycaemic group (Group 1, 32 rats, 8 per treatment) and diabetic rats (Group 2, 32 rats, 8 per treatment). For the diabetic rat experiments diabetes was induced with intraperitoneal injection of alloxan 100 mg/kg. Alloxan is very well verified diabetogenic substance for inducing diabetes in rats and other animal species (rabbit, dog, mice et […]). See, for example, […]. Coil Physicians Edinb, 32: 134-142, 2002; […], Diabetologia, 31: 337-342, 1988; Shaw et al., Lancet, 11: 384-386, 1943; Goldner & Gomori, Endocrinology, 35: 241-268, 1943. 1). Saline solution, 1 ml/kg, per orally, daily for 5 days (control group); 2). Stevioside, 20 mg/kg, orally, daily for 5 days; 3). […] Glucose blood concentrations were measured before the treatment, after the 5th dose, before OGTT, and 30 minutes after OGTT. […] The following were measured in serum: 1). […]

Row | Compound | Effect on total cholesterol (diabetic rats [1]) | Effect on HDL levels (diabetic rats [1]; Lovastatin 20 mg/kg) | Effect on glucose levels both before and after the OGTT (diabetic Wistar rats) | Effect on C peptide levels (normoglycaemic rats [2]) | Changes in HDL serum cholesterol concentrations (normoglycaemic rats [3]) | Changes in total cholesterol in serum concentrations (normoglycaemic rats [3]) | LDL serum cholesterol concentrations relative to control values (normoglycaemic rats [3]) | LDL: HDL Ratio (ratios of means) (normoglycaemic rats [3]; normoglycaemic rats, n = 8, after 5 days treatment) | Changes in total cholesterol in serum concentrations (diabetic rats [4]; 5 days treatment) | Effect on LDL:HDL ratio (diabetic rats [4]; 5 days treatment) | Effect on HDL levels (diabetic rats [4]; 5 days, MKH at 4 mg/kg) | LDL: HDL Ratio (ratios of means) (diabetic rats [4]; n = 8, after 5 days treatment) | Effect on LDL cholesterol levels (diabetic rats [4]) | Effect on LDL levels (diabetic rats [1]; 7 days oral treatment, MKH 2 mg/kg, Lovastatin 20 mg/kg) | Effect on LDL:HDL ratio (diabetic rats [1]; by Day 7) | Effect on C-peptide (diabetic rats [5])
1 | CC[C@H](C)C(=O)O[C@H]1C[C@@H](C)C=C2C=C[C@H](C)[C@H](CC[C@@H]3C[C@@H](O)CC(=O)O3)[C@H]21 [Lovastatin, reference compound] | reduced total cholesterol by a similar amount | reduced HDLs significantly | – | – | – | – | – | – | – | – | – | – | – | – | – | –
2 | C[C@H](CCC(=O)O)[C@H]1CC[C@H]2[C@@H]3[C@H](O)C[C@@H]4C[C@H](O)CC[C@]4(C)[C@H]3CC(=O)[C@]12C [MKH, 3α,7α-dihydroxy-12-oxo-5β-cholanate] | reduced total cholesterol by a similar amount | this effect was not observed; also recorded: did not do so | significant decrease in glucose levels | Neither stevioside or 3α,7α-dihydroxy-12-oxo-5β-cholanate alone had statistically significant effects | no significant changes | no significant changes | significantly decreased (one third of control values) | 0.01 | no significant changes | slight increase in LDL:HDL ratio | A decrease was observed | 1.12 | decreases in LDL levels and while these were not statistically significant | very highly significant decrease in LDL levels; also recorded: significantly greater than that achieved by Lovastatin | significant decrease in the LDL:HDL ratio | –
3 | C=C1C[C@@]23CC[C@H]4[C@@](C)(CCC[C@@]4(C)C(=O)O[C@@H]4O[C@H](CO)[C@@H](O)[C@H](O)[C@H]4O)[C@@H]2CC[C@]1(O[C@@H]1O[C@H](CO)[C@@H](O)[C@H](O)[C@H]1O[C@@H]1O[C@H](CO)[C@@H](O)[C@H](O)[C@H]1O)C3 [Stevioside, stevioside] | – | – | – | Neither stevioside or 3α,7α-dihydroxy-12-oxo-5β-cholanate alone had statistically significant effects | no significant changes | no significant changes | significantly decreased (one third of control values) | – | no significant changes | – | – | – | highly significant decrease in LDL cholesterol levels | – | – | significant increases in C-peptide
